Reference: PubChem BioAssay AID256 (DTP/NCI, 2004)
“And” between values parts separate entries of the source, which are not always exact repeats. Equal entries are not always repeated. Inconclusive results and toxic doses are left out.

Test system: CD2F1 mice, L1210 leukemia ip, survival T/C
Experiment: NCI In Vivo Anticancer Drug Screen. Data for tumor model L1210 Leukemia (intraperitoneal) in CD2F1 (CDF1) mice
Conditions: higher = longer survival
In short: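 Antitumor effect is scored in animals hosting a serially transplanted tumor. Values compare compound-dosed animals against vehicle-only controls as a simple quotient.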

[1] = endpoint: mean survival time, dose: 25.0 mg/kg/injection, schedule: Q01DX009 (ip), vehicle: saline with Tween-80
[2] = endpoint: mean survival time, dose: 50.0 mg/kg/injection, schedule: Q01DX009 (ip), vehicle: saline with Tween-80
[3] = endpoint: mean survival time, dose: 100.0 mg/kg/injection, schedule: Q01DX009 (ip), vehicle: saline with Tween-80
[4] = endpoint: mean survival time, dose: 100.0 mg/kg/injection, schedule: Q04DX003 (ip), vehicle: saline with Tween-80
[5] = endpoint: mean survival time, dose: 200.0 mg/kg/injection, schedule: Q04DX003 (ip), vehicle: saline with Tween-80
[6] = endpoint: mean survival time, dose: 400.0 mg/kg/injection, schedule: Q04DX003 (ip), vehicle: saline with Tween-80
[7] = endpoint: mean survival time, dose: 100.0 mg/kg/injection, schedule: Q01DX009 (ip), vehicle: saline
[8] = endpoint: mean survival time, dose: 200.0 mg/kg/injection, schedule: Q01DX009 (ip), vehicle: saline
[9] = endpoint: mean survival time, dose: 200.0 mg/kg/injection, schedule: Q01DX001 (ip), vehicle: saline
[10] = endpoint: mean survival time, dose: 25.0 mg/kg/injection, schedule: Q04DX003 (ip), vehicle: saline with Tween-80
[11] = endpoint: mean survival time, dose: 50.0 mg/kg/injection, schedule: Q04DX003 (ip), vehicle: saline with Tween-80
[12] = endpoint: mean survival time, dose: 50.0 mg/kg/injection, schedule: Q04DX002 (ip), vehicle: Klucel (hydroxypropylcellulose) (HPC)
[13] = endpoint: mean survival time, dose: 100.0 mg/kg/injection, schedule: Q04DX002 (ip), vehicle: Klucel (hydroxypropylcellulose) (HPC)
[14] = endpoint: mean survival time, dose: 200.0 mg/kg/injection, schedule: Q04DX002 (ip), vehicle: Klucel (hydroxypropylcellulose) (HPC)
[15] = endpoint: mean survival time, dose: 100.0 mg/kg/injection, schedule: Q01DX001 (ip), vehicle: saline
[16] = endpoint: mean survival time, dose: 25.0 mg/kg/injection, schedule: Q01DX005 (ip), vehicle: water
[17] = endpoint: mean survival time, dose: 50.0 mg/kg/injection, schedule: Q01DX005 (ip), vehicle: water
[18] = endpoint: mean survival time, dose: 100.0 mg/kg/injection, schedule: Q01DX005 (ip), vehicle: water
[19] = endpoint: mean survival time, dose: 200.0 mg/kg/injection, schedule: Q01DX005 (ip), vehicle: water
[20] = endpoint: mean survival time, dose: 200.0 mg/kg/injection, schedule: Q01DX009 (ip), vehicle: saline with Tween-80

CC(C)OC(=O)N1C(=O)C2C3CCC(O3)C2C1=O (configuration not stated)
T/C [1]: 105 % of control | T/C (endpoint: mean survival time, dose: 25.0 mg/kg/injection, schedule: Q04DX002 (ip), vehicle: saline with Tween-80): 101 % of control | T/C [2]: 97 % of control | T/C (endpoint: mean survival time, dose: 50.0 mg/kg/injection, schedule: Q04DX002 (ip), vehicle: saline with Tween-80): 101 % of control | T/C [3]: 97 % of control | T/C (endpoint: mean survival time, dose: 100.0 mg/kg/injection, schedule: Q04DX002 (ip), vehicle: saline with Tween-80): 106 % of control | T/C (endpoint: mean survival time, dose: 400.0 mg/kg/injection, schedule: Q04DX002 (ip), vehicle: saline with Tween-80): 97 % of control

COC(=O)C1(C)CCCC2(C)C1CCC13OCC(CC21)C(O)(C(C)C)C3O (configuration not stated)
T/C [4]: 95 % of control | T/C [5]: 97 % of control | T/C [6]: 103 % of control

O/N=C(/CN1CCOCC1)c1ccc(Cl)cc1
T/C (endpoint: mean survival time, dose: 50.0 mg/kg/injection, schedule: Q01DX009 (ip), vehicle: saline): 100 % of control | T/C [7]: 97 % of control | T/C [8]: 103 % of control

OC(CN1CCCCC1)c1ccncc1 (configuration not stated)
T/C (endpoint: mean survival time, dose: 75.0 mg/kg/injection, schedule: Q01DX001 (ip), vehicle: saline): 95 % of control | T/C (endpoint: mean survival time, dose: 150.0 mg/kg/injection, schedule: Q01DX001 (ip), vehicle: saline): 95 % of control | T/C (endpoint: mean survival time, dose: 300.0 mg/kg/injection, schedule: Q01DX001 (ip), vehicle: saline): 95 % of control

CC(=O)O.[La]
T/C [9]: 94 % of control

COc1nc(-c2ccncc2)nc(N(C)C)n1
T/C (endpoint: mean survival time, dose: 4.5 mg/kg/injection, schedule: Q04DX002 (ip), vehicle: saline): 98 % of control | T/C (endpoint: mean survival time, dose: 9.0 mg/kg/injection, schedule: Q04DX002 (ip), vehicle: saline): 103 % of control

O=C(O)/C(O)=C(/O)C(=O)O.[NH-]C1CCCCC1[NH-].[Pt+2]
T/C (endpoint: median survival time, dose: 3.12 mg/kg/injection, schedule: Q04DX003 (ip), vehicle: saline): 97 % of control | T/C (endpoint: median survival time, dose: 25.0 mg/kg/injection, schedule: Q04DX003 (ip), vehicle: saline): 113 % of control and 202 % of control | T/C (endpoint: median survival time, dose: 50.0 mg/kg/injection, schedule: Q04DX003 (ip), vehicle: saline): 337 % of control | T/C (endpoint: median survival time, dose: 200.0 mg/kg/injection, schedule: Q04DX003 (ip), vehicle: saline): 184 % of control

CCOC(=O)Nc1cc(NCc2ccccc2)c2[nH]cnc2n1
T/C (endpoint: mean survival time, dose: 100.0 mg/kg/injection, schedule: Q01DX001 (ip), vehicle: Klucel (hydroxypropylcellulose) (HPC)): 89 % of control | T/C (endpoint: mean survival time, dose: 200.0 mg/kg/injection, schedule: Q01DX001 (ip), vehicle: Klucel (hydroxypropylcellulose) (HPC)): 95 % of control | T/C (endpoint: mean survival time, dose: 400.0 mg/kg/injection, schedule: Q01DX001 (ip), vehicle: Klucel (hydroxypropylcellulose) (HPC)): 98 % of control

COC(C)(C)O/N=C(\C[n+]1ccccc1)c1ccccc1
T/C (endpoint: mean survival time, dose: 12.5 mg/kg/injection, schedule: Q01DX009 (ip), vehicle: water): 95 % of control | T/C (endpoint: mean survival time, dose: 25.0 mg/kg/injection, schedule: Q01DX009 (ip), vehicle: water): 91 % of control | T/C (endpoint: mean survival time, dose: 50.0 mg/kg/injection, schedule: Q01DX009 (ip), vehicle: water): 90 % of control

O=[N+]([O-])c1ccccc1C[P+](c1ccccc1)(c1ccccc1)c1ccccc1
T/C [10]: 98 % of control | T/C [11]: 114 % of control

O=C(Nc1cccnc1)c1cccc([N+](=O)[O-])c1
T/C (endpoint: mean survival time, dose: 25.0 mg/kg/injection, schedule: Q01DX009 (ip), vehicle: Klucel (hydroxypropylcellulose) (HPC)): 108 % of control | T/C (endpoint: mean survival time, dose: 25.0 mg/kg/injection, schedule: Q04DX002 (ip), vehicle: Klucel (hydroxypropylcellulose) (HPC)): 97 % of control | T/C (endpoint: mean survival time, dose: 50.0 mg/kg/injection, schedule: Q01DX009 (ip), vehicle: Klucel (hydroxypropylcellulose) (HPC)): 110 % of control | T/C [12]: 102 % of control | T/C (endpoint: mean survival time, dose: 100.0 mg/kg/injection, schedule: Q01DX009 (ip), vehicle: Klucel (hydroxypropylcellulose) (HPC)): 93 % of control | T/C [13]: 97 % of control | T/C (endpoint: mean survival time, dose: 200.0 mg/kg/injection, schedule: Q01DX009 (ip), vehicle: Klucel (hydroxypropylcellulose) (HPC)): 92 % of control | T/C [14]: 96 % of control

O=C1CC(=O)NC(=S)N1
T/C [7]: 95 % of control | T/C [8]: 93 % of control

CCN(C(=O)Nc1cccc2ccccc12)c1ccccc1
T/C [4]: 104 % of control | T/C [5]: 101 % of control | T/C [6]: 109 % of control

Cc1ccc(-c2csc(/N=C/c3ccccc3O)n2)cc1.Cc1ccc(-c2csc(/N=C/c3ccccc3O)n2)cc1.[Cu]
T/C (endpoint: mean survival time, dose: 25.0 mg/kg/injection, schedule: Q01DX001 (ip), vehicle: saline): 91 % of control | T/C (endpoint: mean survival time, dose: 50.0 mg/kg/injection, schedule: Q01DX001 (ip), vehicle: saline): 96 % of control | T/C (endpoint: mean survival time, dose: 100.0 mg/kg/injection, schedule: Q01DX001 (ip), vehicle: saline with Tween-80): 86 % of control | T/C [15]: 87 % of control | T/C (endpoint: mean survival time, dose: 400.0 mg/kg/injection, schedule: Q01DX001 (ip), vehicle: saline with Tween-80): 93 % of control

CN(C)CCNCc1cn(C2CC(O)C(CO)O2)c(=O)[nH]c1=O (configuration not stated)
T/C (endpoint: mean survival time, dose: 12.5 mg/kg/injection, schedule: Q01DX005 (ip), vehicle: water): 105 % of control | T/C [16]: 103 % of control | T/C [17]: 106 % of control | T/C [18]: 103 % of control | T/C [19]: 114 % of control

Nc1ncc(CCS)c(=O)[nH]1
T/C [15]: 97 % of control | T/C [9]: 98 % of control

CCCCC(CC)CNC1=C(Cl)C(=O)c2ccccc2C1=O (configuration not stated)
T/C [10]: 98 % of control | T/C [11]: 106 % of control | T/C [4]: 95 % of control

O=C(CCNC(=O)OCc1ccccc1)NC(CSCc1ccccc1)C(=O)O (configuration not stated)
T/C [16]: 101 % of control | T/C [17]: 106 % of control | T/C [18]: 101 % of control | T/C [19]: 108 % of control

CCOC(=O)c1[nH]cnc1/N=N/N(C)C
T/C (endpoint: mean survival time, dose: 16.5 mg/kg/injection, schedule: Q01DX009 (ip), vehicle: saline with Tween-80): 120 % of control | T/C [3]: 109 % of control | T/C [4]: 105 % of control

Cc1ccc([NH-])c(Cl)c1.Cc1ccc([NH-])c(Cl)c1.[Cl][Pt+2][Cl]
T/C (endpoint: mean survival time, dose: 12.5 mg/kg/injection, schedule: Q04DX003 (ip), vehicle: saline with Tween-80): 95 % of control | T/C [10]: 97 % of control | T/C [11]: 97 % of control | T/C [4]: 97 % of control | T/C [5]: 89 % of control

N=C(N)c1ccc(N=NNc2ccc(C(=N)N)cc2)cc1
T/C (endpoint: median survival time, dose: 12.5 mg/kg/injection, schedule: Q01DX009 (ip), vehicle: saline with Tween-80): 117 % of control | T/C (endpoint: median survival time, dose: 25.0 mg/kg/injection, schedule: Q01DX009 (ip), vehicle: saline with Tween-80): 102 % of control

CCN(CC)Cc1cccc(Nc2cc(C)nc(/N=C(\N)Nc3ccc(Cl)c(Cl)c3)n2)c1
T/C (endpoint: mean survival time, dose: 9.5 mg/kg/injection, schedule: Q01DX001 (ip), vehicle: other): 102 % of control | T/C (endpoint: mean survival time, dose: 19.0 mg/kg/injection, schedule: Q01DX001 (ip), vehicle: other): 96 % of control | T/C (endpoint: mean survival time, dose: 38.0 mg/kg/injection, schedule: Q01DX001 (ip), vehicle: other): 95 % of control

C(COCCOCC1CO1)OCCOCC1CO1 (configuration not stated)
T/C (endpoint: mean survival time, dose: 12.5 mg/kg/injection, schedule: Q01DX009 (ip), vehicle: saline with Tween-80): 104 % of control | T/C [1]: 108 % of control | T/C [2]: 104 % of control | T/C [3]: 106 % of control | T/C [20]: 104 % of control

ClI(Cl)c1ccccc1
T/C [3]: 98 % of control

O=C1c2ccccc2C2c3ccccc3CCN12 (configuration not stated)
T/C [3]: 103 % of control | T/C [4]: 104 % of control | T/C [20]: 97 % of control | T/C [5]: 102 % of control | T/C (endpoint: mean survival time, dose: 400.0 mg/kg/injection, schedule: Q01DX009 (ip), vehicle: saline with Tween-80): 97 % of control | T/C [6]: 102 % of control

O=C(O)c1cccc(-c2ccccc2)c1
T/C [7]: 104 % of control | T/C [8]: 154 % of control | T/C (endpoint: mean survival time, dose: 400.0 mg/kg/injection, schedule: Q01DX009 (ip), vehicle: saline): 93 % of control

O=[N+]([O-])c1ccc(CSc2ncnc3c2ncn3C2OC(CO)C(O)C2O)cc1 (configuration not stated)
T/C (endpoint: median survival time, dose: 0.1 mg/kg/injection, schedule: Q01DX009 (ip), vehicle: saline): 100 % of control | T/C (endpoint: median survival time, dose: 1.0 mg/kg/injection, schedule: Q01DX009 (ip), vehicle: saline): 105 % of control | T/C (endpoint: median survival time, dose: 10.0 mg/kg/injection, schedule: Q01DX009 (ip), vehicle: saline): 107 % of control

O=C(Nc1cccc2ccccc12)SCc1ccccc1
T/C [12]: 88 % of control | T/C [13]: 106 % of control | T/C [14]: 95 % of control
